Measured values taken from PubChem BioAssay AID1259411 (Chemical Carcinogenesis Research Information System (CCRIS), 2018).
Activity calls are given as the source filed them. No rule for the calls is given here.

Tested on: rodent carcinogenicity bioassays, tumor incidence
Experiment: CCRIS carcinogenicity studies
How it was run: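 Archive of carcinogenicity, mutagenicity, tumor promotion and tumor inhibition results drawn from journals, NCI reports and other sources, expert-reviewed; covers 1985-2011 and is no longer updated.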

## c1ccccc1
Species: HUMAN, Route: INHALATION, DERMAL, Tumor Site: Type of Lesion: HEMATOPOIETIC SYSTEM (LEUKEMIA)
  carcinogen call: active; positive
Species: MOUSE, Route: INHALATION, Dose: 0, 300 PPM 6 HR/D 5 D/WK FOR 16 WK (STUDY DURATION: LIFETIME), Tumor Site: Type of Lesion: HEMATOPOIETIC SYSTEM: LYMPHOMA
  carcinogen call: active; positive
Species: MOUSE, Strain/Sex: B6C3F1/FEMALE, Route: GAVAGE, Dose: 0, 25, 50, 100 MG/KG IN CORN OIL 5 D/WK FOR 103 WK, Dose: 0, 25, 50, 100 MG/KG IN CORN OIL 5 D/WK FOR 103 WK, Tumor Site: Type of Lesion: LUNG: ALVEOLAR/BRONCHIOLAR CARCINOMA, ALVEOLAR/BRONCHIOLAR ADENOMA OR CARCINOMA, HEMATOPOIETIC SYSTEM: MALIGNANT LYMPHOM
  carcinogen call: active; positive
Species: MOUSE, Strain/Sex: B6C3F1/MALE, Route: GAVAGE, Dose: 0, 25, 50, 100 MG/KG IN CORN OIL 5 D/WK FOR 103 WK, Dose: 0, 25, 50, 100 MG/KG IN CORN OIL 5 D/WK FOR 103 WK, Tumor Site: Type of Lesion: LUNG: ALVEOLAR/BRONCHIOLAR CARCINOMA, ALVEOLAR/BRONCHIOLAR ADENOMA, HEMATOPOIETIC SYSTEM: MALIGNANT LYMPHOMA, LEUKEMIA O
  carcinogen call: active; positive
Species: MOUSE, Strain/Sex: C57BL/FEMALE, Route: INHALATION, Dose: 0, 300 PPM 6 HR/D 5 D/WK FOR 16 WK (STUDY DURATION: 64 WK), Tumor Site: Type of Lesion: LYMPHATIC SYSTEM: LYMPHOMA
  carcinogen call: active; positive
Species: MOUSE, Strain/Sex: C57BL/FEMALE, Route: INHALATION, Dose: 0, 300 PPM 6 HR/D 5 D/WK FOR 16 WK (STUDY DURATION: 750 D), Tumor Site: Type of Lesion: HEMATOPOIETIC SYSTEM: LYMPHOCYTIC LEUKEMIA, LEUKEMIA, THYMUS GLAND: LEUKEMIA, ZYMBAL GLAND: TUMOR, OVARY: TUMOR, Tumor Site: Type of Lesion: HEMATOPOIETIC SYSTEM: LYMPHOCYTIC LEUKEMIA, LEUKEMIA, THYMUS GLAND: LEUKEMIA, ZYMBAL GLAND: TUMOR, OVARY: TUMOR
  carcinogen call: active; positive
Species: MOUSE, Strain/Sex: C57BL/MALE, Route: INHALATION, Dose: 0, 300 PPM 6HR/D, 5D/WK FOR 1 WK FOLLOWED BY 2 WK NO TREATMENT, CYCLE REPEATED FOR LIFESPAN (STUDY DURATION: LIFESPAN), Tumor Site: Type of Lesion: LUNG: ADENOMA, HEMATOPOIETIC SYSTEM: LEUKEMIA OR LYMPHOMA, ZYMBAL GLAND: CARCINOMA, Tumor Site: Type of Lesion: LUNG: ADENOMA, HEMATOPOIETIC SYSTEM: LEUKEMIA OR LYMPHOMA, ZYMBAL GLAND: CARCINOMA
  carcinogen call: active; positive
Species: MOUSE, Strain/Sex: C57BL/MALE, Route: INHALATION, Dose: 0, 300 PPM 6 HR/D, 5 D/WK FOR LIFE, Tumor Site: Type of Lesion: HEMATOPOIETIC SYSTEM: LYMPHOCYTIC LYMPHOMA
  carcinogen call: active; positive
Species: MOUSE, Strain/Sex: C57BL/MALE, Route: INHALATION, Dose: 0, 1200 PPM 6HR/D, 5D/WK FOR 10 WK (STUDY DURATION: LIFESPAN)
  carcinogen call: inactive; negative
Species: MOUSE, Strain/Sex: CBA/CA BNL/FEMALE, Route: INHALATION, Dose: 0, 300 PPM 6 HR/D 5 D/WK FOR 16 WK (STUDY DURATION: >1100 D), Tumor Site: Type of Lesion: HEMATOPOIETIC SYSTEM: MYELOGENOUS NEOPLASM
  carcinogen call: active; positive
Species: MOUSE, Strain/Sex: CBA/CA BNL/MALE, Route: INHALATION, Dose: 0, 100, 300 PPM 6 HR/D 5 D/WK FOR 16 WK (STUDY DURATION: >1100 D), Dose: 0, 100, 300 PPM 6 HR/D 5 D/WK FOR 16 WK (STUDY DURATION: >1100 D), Tumor Site: Type of Lesion: HEMATOPOIETIC SYSTEM: MYELOGENOUS NEOPLASM
  carcinogen call: active; positive
Species: MOUSE, Strain/Sex: CBA/MALE, Route: INHALATION, Dose: 0, 300 PPM 6 HR/D 5 D/WK FOR 16 WK (STUDY DURATION: 22 MO), Tumor Site: Type of Lesion: LYMPHATIC SYSTEM: MALIGNANT LYMPHOMA, PREPUTIAL GLAND: SQUAMOUS CELL CARCINOMA, LUNG: ADENOMA, Tumor Site: Type of Lesion: LYMPHATIC SYSTEM: MALIGNANT LYMPHOMA, PREPUTIAL GLAND: SQUAMOUS CELL CARCINOMA, LUNG: ADENOMA
  carcinogen call: active; positive
Species: MOUSE, Strain/Sex: CD-1/MALE, Route: INHALATION, Dose: 0, 300 PPM 6HR/D, 5D/WK FOR 1 WK FOLLOWED BY 2 WK NO TREATMENT, CYCLE REPEATED FOR LIFESPAN (STUDY DURATION: LIFESPAN), Tumor Site: Type of Lesion: LUNG: ADENOMA, HEMATOPOIETIC SYSTEM: LEUKEMIA OR LYMPHOMA, ZYMBAL GLAND: CARCINOMA, Tumor Site: Type of Lesion: LUNG: ADENOMA, HEMATOPOIETIC SYSTEM: LEUKEMIA OR LYMPHOMA, ZYMBAL GLAND: CARCINOMA
  carcinogen call: active; positive
Species: MOUSE, Strain/Sex: CD-1/MALE, Route: INHALATION, Dose: 0, 1200 PPM 6HR/D, 5D/WK FOR 10 WK (STUDY DURATION: LIFESPAN), Tumor Site: Type of Lesion: LUNG: ADENOMA, HEMATOPOIETIC SYSTEM: LEUKEMIA OR LYMPHOMA, ZYMBAL GLAND: CARCINOMA, Tumor Site: Type of Lesion: LUNG: ADENOMA, HEMATOPOIETIC SYSTEM: LEUKEMIA OR LYMPHOMA, ZYMBAL GLAND: CARCINOMA
  carcinogen call: active; positive
Species: MOUSE, Strain/Sex: EU-PIM-1/FEMALE, Route: GAVAGE, Dose: 0, 50, 100 MG/KG 1/D FOR 40 WK (STUDY DURATION: 40 WK), Dose: 0, 50, 100 MG/KG 1/D FOR 40 WK (STUDY DURATION: 40 WK)
  carcinogen call: inactive; negative
Species: MOUSE, Strain/Sex: EU-PIM-1/MALE, Route: GAVAGE, Dose: 0, 50, 100 MG/KG 1/D FOR 40 WK (STUDY DURATION: 40 WK), Dose: 0, 50, 100 MG/KG 1/D FOR 40 WK (STUDY DURATION: 40 WK)
  carcinogen call: inactive; negative
Species: MOUSE, Strain/Sex: SWISS/FEMALE, Route: GAVAGE, Dose: 0, 500 MG/KG IN OLIVE OIL 1/D FOR 4 TO 5 D/WK FOR 78 WK (STUDY DURATION: LIFETIME), Tumor Site: Type of Lesion: MAMMARY GLAND: CARCINOMA, LUNG: TUMORS, ZYMBAL GLAND: CARCINOMA, Tumor Site: Type of Lesion: MAMMARY GLAND: CARCINOMA, LUNG: TUMORS, ZYMBAL GLAND: CARCINOMA
  carcinogen call: active; positive
Species: MOUSE, Strain/Sex: SWISS/FEMALE, Route: INTRAGASTRIC, Dose: 0, 500 MG/KG IN OLIVE OIL 1/D 4-5 D/WK FOR 78 WK (STUDY DURATION: LIFESPAN), Tumor Site: Type of Lesion: LUNG: ADENOMA, MAMMARY GLAND: MALIGNANT TUMOR
  carcinogen call: active; positive
Species: MOUSE, Strain/Sex: SWISS/FEMALE, Route: INTRAPERITONEAL, Dose: 0, 36.1, 137.3 UMOL ADMINISTERED AS 3 UNEQUAL DOSES (1/7, 2/7, AND 4/7 OF THE TOTAL DOSE) OVER A 2-WK PERIOD (STUDY DURA, Dose: 0, 36.1, 137.3 UMOL ADMINISTERED AS 3 UNEQUAL DOSES (1/7, 2/7, AND 4/7 OF THE TOTAL DOSE) OVER A 2-WK PERIOD (STUDY DURA
  carcinogen call: inactive; negative
Species: MOUSE, Strain/Sex: SWISS/MALE, Route: GAVAGE, Dose: 0, 500 MG/KG IN OLIVE OIL 1/D FOR 4 TO 5 D/WK FOR 78 WK (STUDY DURATION: LIFETIME), Tumor Site: Type of Lesion: LUNG: TUMOR, ZYMBAL GLAND: CARCINOMA
  carcinogen call: active; positive
Species: MOUSE, Strain/Sex: SWISS/MALE, Route: INTRAGASTRIC, Dose: 0, 500 MG/KG IN OLIVE OIL 1/D 4-5 D/WK FOR 78 WK (STUDY DURATION: LIFESPAN), Tumor Site: Type of Lesion: ZYMBAL GLAND: CARCINOMA, LUNG: ADENOMA
  carcinogen call: active; positive
Species: MOUSE, Strain/Sex: SWISS/MALE, Route: INTRAPERITONEAL, Dose: 0, 36.1, 137.3 UMOL ADMINISTERED AS 3 UNEQUAL DOSES (1/7, 2/7, AND 4/7 OF THE TOTAL DOSE) OVER A 2-WK PERIOD (STUDY DURA, Dose: 0, 36.1, 137.3 UMOL ADMINISTERED AS 3 UNEQUAL DOSES (1/7, 2/7, AND 4/7 OF THE TOTAL DOSE) OVER A 2-WK PERIOD (STUDY DURA
  carcinogen call: inactive; negative
Species: Mouse, Strain/Sex: C57BL/6 (heterozygous Trp53-deficient)/Male, Route: Inhalation, Dose: 0, 33, 100, 300 ppm 6 hr/d, 5 d/wk for 26 wks, then no exposure for lifetime, Dose: 0, 33, 100, 300 ppm 6 hr/d, 5 d/wk for 26 wks, then no exposure for lifetime, Tumor Site: Type of Lesion: Blood: hematopoietic neoplasms (38, 41, 36, 89%). Lymphoid tissue: thymic lymphoma (0, 4,16, 73%)
  carcinogen call: active; positive (highest dose)
